Reference: US7491827B2, “Aryl sulfonamides useful as inhibitors of chemokine receptor activity” (Millennium Pharmaceuticals, Inc., priority 2003, dated 2009)

Molecular target: T1, cloned human CCR8 receptor stably expressed in L1.2 cells (Homo sapiens, UniProt P51685)
T1 construct: expressed in transfected cells
Experiment: whole cell binding screen: inhibition of biotinylated human I309 binding to CCR8 (FMAT 8100 HTS)
Details: L1.2/hCCR8 cells, biotinylated human I-309, 10 point concentration response starting at 10 μM; read-out: Ki of compounds to inhibit I-309 binding to CCR8
Source text: This whole cell binding screen evaluates the ability of compounds to inhibit biotinlyated human I309 binding to the cloned human CCR8 receptor stably expressed in L1.2 cells. Human CCR8 gene was amplified by PCR using PFU polymerase under standard conditions from human genomic DNA purchased from Stratagene. The PCR primers used were:
The 5′ and 3′ primers contained flanking enzyme sites (Bam Hi and Not 1,respectively), which were used to subclone the gene into pcDNA3.1. […] The CCR8 vector was then transfected into L1.2 cells (murine pre-B cells) by electroporation.
Compounds were screened using the FMAT™ 8100 HTS System (purchased from Applied Biosystems).
A suspension was prepared of L1.2/hCCR8 cells at 4.0×10^5 cells/mL in a binding buffer (Buffer consisting of Hanks Balanced Salt Solution (without phenol red), 10 mM HEPES, 0.1% Fatty Acid Free BSA, 0.02% Sodium Azide).
Dilution series of 10 mM stock concentrations of the test compounds were prepared in DMSO and further diluted into binding buffer defined above) to three times the final assay concentration.
10 point concentration response curve is constructed for each compound, starting at 10 μM (final assay concentration in Binding Buffer). […] The components were mixed in wells by covering the plate with aluminum foil and rotating for 0.5 hours. […] Average fluorescence reported for each concentration was normalized to percent inhibition based on negative (no inhibitor) and positive (100 nM excess unlabeled I309 (R and D Systems)) controls.

T1 sequence (P51685 whole entry): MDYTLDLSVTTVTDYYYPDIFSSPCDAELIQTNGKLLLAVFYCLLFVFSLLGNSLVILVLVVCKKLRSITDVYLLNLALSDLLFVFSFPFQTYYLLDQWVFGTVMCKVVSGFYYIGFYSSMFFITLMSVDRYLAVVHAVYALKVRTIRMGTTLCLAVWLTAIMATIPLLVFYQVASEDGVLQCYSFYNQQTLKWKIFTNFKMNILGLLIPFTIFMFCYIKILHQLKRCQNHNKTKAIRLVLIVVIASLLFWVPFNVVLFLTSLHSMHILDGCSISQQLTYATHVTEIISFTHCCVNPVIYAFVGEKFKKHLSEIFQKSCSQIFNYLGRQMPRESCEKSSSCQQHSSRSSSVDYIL

| Ki | SMILES |
| --- | --- |
| < 500 nM | CCCC(=O)N1CCCC(NS(=O)(=O)c2ccc(NC(=O)c3ccccc3C)c3ccccc23)C1 (racemic) [Compound C-114, (±)-N-[4-(I-Butyryl-piperidin-3-ylsulfamoyl)-naphthalen-1-yl]-2-methyl-benzamide] |
| < 500 nM | CCOC(=O)N1CCCC(NS(=O)(=O)c2ccc(NC(=O)c3ccccc3C)c3ccccc23)C1 (racemic) [Compound C-115, (±)-3-[4-(2-Methyl-benzoylamno)-naphthalene-1-sulfonylamino]-piperidine-1-carboxylic acid ethyl ester] |
| < 500 nM | CCOC(=O)N1CC[C@H](NS(=O)(=O)c2ccc(NC(=O)c3ccccc3C)c3ccccc23)[C@H](C)C1 (racemic) [Compound C-136, (±)-cis-3-Methyl-4-[4-(2-methyl-benzoylamino)-naphthalene-1-sulfonylamino]-piperidine-1-carboxylic acid ethyl ester] |
| < 500 nM | CCCC(=O)N1CC[C@H](NS(=O)(=O)c2ccc(NC(=O)c3ccccc3C)c3ccccc23)[C@H](C)C1 (racemic) [Compound C-139, (±)-cis-N-[4-(1-Butryl-3-methyl-piperidin-4-ylsuffamoyl)-naphthalen-1-yl]-2-methyl-benzamide] |
| < 500 nM | Cc1ccccc1C(=O)Nc1ccc(S(=O)(=O)N[C@@H]2CCN(C(=O)CN3CCCC3)C[C@@H]2C)c2ccccc12 (racemic) [Compound C-142, (±)-2-Methyl-N-{4-[cis-3-methyl-1-(2-pyrrolidin-1-yl-acetyl)-piperidin-4-ylsulfamoyl]-naphthalen-1-yl}-benzamide] |
| < 30000 nM | Cc1ccccc1C(=O)Nc1ccc(S(=O)(=O)N[C@@H]2CCN(C(=O)CN3CCCCC3)C[C@@H]2C)c2ccccc12 (racemic) [Compound C-143, (±)-2-Methyl-N-{4-[cis-3-methyl-1-(2-piperidin-1-yl-aceyl)-piperidin-4-ylsulfamoyl]-naphthalen-1-yl}-benzamide] |
| < 30000 nM | CCN(CC)CC(=O)N1CC[C@@H](NS(=O)(=O)c2ccc(NC(=O)c3ccccc3C)c3ccccc23)[C@@H](C)C1 (racemic) [Compound C-144, (±)-N-{4-[1-(2-diethylamino-acetyl)-3-cis-methyl-piperidin-4-ylsulfamoyl]-naphthalen-1-yl}-2-methyl-benzamide] |
| < 1000 nM | Cc1ccccc1C(=O)Nc1ccc(S(=O)(=O)N[C@@H]2CCN(C(=O)CN3CCOCC3)C[C@@H]2C)c2ccccc12 (racemic) [Compound C-145, (±)-2-Methyl-N-{4-[3-cis-methyl-1-(2-morpholin-4-yl-acetyl)-piperidin-4-ylsulfamoyl]-naphthalen-1-yl}-benzamide] |
| < 30000 nM | CCCC(=O)N1CC[C@H](NS(=O)(=O)c2ccc(N)c3ccccc23)[C@H](C)C1 (racemic) [Compound D-1, (±)-(cis)-4-amino-naphthalene-1-sulfonic acid (1-butyryl-3-methyl-piperidin-4-yl)-amide] |
| < 30000 nM | CCOC(=O)N1CC[C@H](NS(=O)(=O)c2ccc(N)c3ccccc23)[C@H](C)C1 (racemic) [Compound D-2, (±)-(cis)4-(4-amino-naphthalene-1-sulfonylamino)-3-methyl-piperidine-1-carboxylic acid ethyl ester] |
| < 500 nM | CCCC(=O)N1CC[C@H](NS(=O)(=O)c2ccc(NC(=O)c3cccnc3C)c3ccccc23)[C@H](C)C1 (racemic) [Compound D-3, (±)-(cis)-N-[4-(1-Butyryl-3-methyl-piperidin-4-ylsulfamoyl)-naphthalen-1-yl]-2-methyl-nicotinamide] |
| < 500 nM | CCCC(=O)N1CC[C@H](NS(=O)(=O)c2ccc(NC(=O)c3ncccc3C)c3ccccc23)[C@H](C)C1 (racemic) [Compound D-4, (±)-(cis)-3-Methyl-pyridine-2-carboxylic acid [4-(1-butyryl-3-methyl-piperidin-4-ylsulfamoyl)-naphthalen-1-yl]-amide] |
| < 500 nM | CCCC(=O)N1CC[C@H](NS(=O)(=O)c2ccc(NC(=O)c3c(C)noc3C)c3ccccc23)[C@H](C)C1 (racemic) [Compound D-5, (±)-(cis)-3,5-Dimethyl-isoxazole-4-carboxylic acid [4-(1-butyryl-3-methyl-piperidin-4-ylsulfamoyl)-naphthalen-1-yl]-amide] |
| < 500 nM | CCOC(=O)N1CC[C@H](NS(=O)(=O)c2ccc(NC(=O)c3cccnc3C)c3ccccc23)[C@H](C)C1 (racemic) [Compound D-6, (±)-(cis)-3-Methyl-4-{4-[(2-methyl-pyridine-3-carbonyl)-amino]-naphthalene-1-sulfonylamino}-piperidine-1-carboxylic acid ethyl ester] |
| < 500 nM | CCOC(=O)N1CC[C@H](NS(=O)(=O)c2ccc(NC(=O)c3ncccc3C)c3ccccc23)[C@H](C)C1 (racemic) [Compound D-7, (±)-(cis)-3-Methyl-4-{4-[(3-methyl-pyridine-2-carbonyl)-amino]-naphthalene-1-sulfonylamino}-piperidine-1-carboxylic acid ethyl ester] |
| < 500 nM | CCOC(=O)N1CC[C@H](NS(=O)(=O)c2ccc(NC(=O)c3c(C)noc3C)c3ccccc23)[C@H](C)C1 (racemic) [Compound D-8, (±)-(cis)-4-{4-[(3,5-Dimethyl-isoxazole-4-carbonyl)-amino]-naphthalene-1-sulfonylamino}-3-methyl-piperidine-1-carboxylic acid ethyl ester] |
| < 500 nM | CCOC(=O)N1CC[C@H](NS(=O)(=O)c2ccc(NC(=O)c3cccnc3C)c3ccccc23)[C@@H](C)C1 (racemic) [Compound D-9, (±)-(trans)-3-Methyl-4-{4-[(2-methyl-pyridine-3-carbonyl)-amino]-naphthalene-1-sulfonylamino}-piperidine-1-carboxylic acid ethyl ester] |
| < 500 nM | CCCC(=O)N1CC[C@H](NS(=O)(=O)c2ccc(NC(=O)c3cccnc3C)c3ccccc23)[C@@H](C)C1 (racemic) [Compound D-10, (±)-(trans)-N-[4-(1-Butyryl-3-methyl-piperidin-4-ylsulfamoyl)-naphthalen-1-yl]-2-methyl-nicotinamide] |
| < 1000 nM | Cc1ccccc1C(=O)Nc1ccc(S(=O)(=O)N[C@H]2CCN(Cc3ccccc3)C[C@H]2C)c2c1CCCC2 (racemic) [Compound E-13, (±)-cis-N-[4-(1-Benzyl-3-methyl-piperidin-4-ylsulfamoyl)-5,6,7,8-tetrahydro-naphthalen-1-yl]-2-methyl-benzamide] |
| < 500 nM | Cc1ccccc1C(=O)Nc1ccc(S(=O)(=O)N[C@H]2CCN(C(=O)N(C)C)C[C@H]2C)c2c1CCCC2 (racemic) [Compound E-20, (±)-cis-3-Methyl-4-[4-(2-methyl-benzoylamino)-5,6,7,8-tetrahydro-naphthalene-1-sulfonylamino]-piperidine-1-carboxylic acid dimethylamide] |
| < 500 nM | CCOC(=O)N1CC[C@H](NS(=O)(=O)c2ccc(NC(=O)c3ccccc3C)c3c2CCCC3)[C@H](C)C1 (racemic) [Compound E-21, (±)-cis-3-Methyl-4-[4-(2-methyl-benzoylamino)-5,6,7,8-tetrahydro-naphthalene-1-sulfonylamino]-piperidine-1-carboxylic acid ethyl ester] |
| < 500 nM | Cc1ccccc1C(=O)Nc1ccc(S(=O)(=O)NC2CCCNC2)c2c1CCCC2 (racemic) [Compound E-28, (±)-2-Methyl-N-[4-(piperidin-3-ylsulfamoyl)-5,6,7,8-tetrahydro-naphthalen-1-yl]-benzamide] |
| < 500 nM | Cc1ccccc1C(=O)Nc1ccc(S(=O)(=O)NC2CCNC2)c2c1CCCC2 (racemic) [Compound E-29, (±)-2-Methyl-N-[4-(pyrrolidin-3-ylsulfamoyl)-5,6,7,8-tetrahydro-naphthalen-1-yl]-benzamide] |
| < 500 nM | Cc1ccccc1C(=O)Nc1ccc(S(=O)(=O)NC2CCCN(C(=O)N(C)C)C2)c2c1CCCC2 (racemic) [Compound E-30, (±)-3-[4-(2-Methyl-benzoylamino)-5,6,7,8-tetrahydro-naphthalene-1-sulfonylamino]-piperidine-1-carboxylic acid dimethylamide] |
| < 500 nM | CCOC(=O)N1CCCC(NS(=O)(=O)c2ccc(NC(=O)c3ccccc3C)c3c2CCCC3)C1 (racemic) [Compound E-31, (±)-3-[4-(2-Methyl-benzoylamino)-5,6,7,8-tetrahydro-naphthalene-1-sulfonylamino]-piperidine-1-carboxylic acid ethyl ester] |
| < 500 nM | Cc1ccccc1C(=O)Nc1ccc(S(=O)(=O)NC2CCN(C(=O)N(C)C)C2)c2c1CCCC2 (racemic) [Compound E-32, (±)-3-[4-(2-Methyl-benzoylamino)-5,6,7,8-tetrahydro-naphthalene-1-sulfonylamino]-pyrrolidine-1-carboxylic acid dimethylamide] |
| < 500 nM | CCOC(=O)N1CCC(NS(=O)(=O)c2ccc(NC(=O)c3ccccc3C)c3c2CCCC3)C1 (racemic) [Compound E-33, (±)-3-[4-(2-Methyl-benzoylamino)-5,6,7,8-tetrahydro-naphthalene-1-sulfonylamino]-pyrrolidine-1-carboxylic acid ethyl ester] |
